Measurements: ChEMBL document CHEMBL3507680, “University of Dundee, Gates Library screen for HepG2 cell viability”

Experiment: Human HepG2 cell viability assay in 384 well format
Type: toxicity, cell-based
Design: dose 125 nL, time 70.5 hour; cytotoxicity at 70.5 h: concentration not given beside the values
Settings: HepG2 cells, read-out: Inhibition

SMILES	cytotoxicity at 70.5 h
CC(=O)Nc1nc(CN2CCOC(Cn3cccn3)C2)cs1 (stereo unspecified)	-5.08%
O=C(C1CCCC1)N1CCCC2(CCN(c3cnccn3)CC2)C1	-8.23%
O=C(c1ccc(F)cc1)N1C[C@@H]2COC[C@]2(COc2cccnc2)C1	14.6%
Cc1cc2cc(C(=O)N[C@@H]3CC[C@@H](N4CCCC4)[C@@H]3O)ccc2o1	-5.68%
Cc1nn(C)c(Cl)c1C1CCCN1C(=O)c1cc[nH]n1 (stereo unspecified)	-13%
CCNC(c1cccnc1)c1ccc(F)c(C)c1 (stereo unspecified)	1.17%
CSCC(C)(O)CNC(=O)c1ccc(F)cc1Br (stereo unspecified)	-4.95%
CCOc1ncccc1CNC(=O)NC(C)Cn1cccn1 (stereo unspecified)	25.9%
COc1cccc(OCCn2c(C)c(C)oc2=O)c1	0.585%
Cc1cncc(C2CCCN(CC3CCC3)C2)n1 (stereo unspecified)	-4.65%
Cc1nnc2n1CCN(Cc1c(Cl)ccc3cccnc13)C2	26.2%
CCCc1nc(CNC(=O)Cc2cc(C)no2)cs1	19.8%
CN1CCN(c2nsc(-c3ccccc3)c2C#N)CC1	-2.35%
CCc1nc(C2CCCN(C(=O)c3ccc(F)cc3)C2)no1 (stereo unspecified)	-0.043%
CCC(C)(C)NC(=O)Cn1cc(C(N)=O)c(-c2ccccc2)n1	-7.28%
CN1CCCC1CNC(=O)CCOc1ccc(Cl)cc1 (stereo unspecified)	-2.08%
CCc1sc(C(=O)Nc2cnn(CC(N)=O)c2)cc1C	14.8%
COCCC(=O)NC1CCN(CC2(c3cccc(F)c3)CCCC2)CC1	0.0702%
COc1ccnc(N2C[C@@H]3CC[C@H](C2)N(CC2CC2)C3)n1	4.47%

SMILES	cytotoxicity at 70.5 h
O[C@@H]1C[C@@](CNCC2CC2)(COc2cccnc2)C[C@@H]1O	-7.73%
CCS(=O)(=O)CCN1CCC(N(C)Cc2noc(C(C)C)n2)C1 (stereo unspecified)	-5.52%
Cc1c(Br)cccc1C(=O)Nc1cc(C(N)=O)n(C)c1	-6.66%
C1CCC(c2nn3c(C4CCCO4)nnc3s2)C1 (stereo unspecified)	-9.64%
CCC(NC(=O)c1cc(NC(C)=O)ccc1Cl)c1cc(C)ccn1 (stereo unspecified)	9.03%
CCN(C)S(=O)(=O)N(CC)Cc1ccc2c(c1)OCO2	-17.8%
CN1CC2(CNCCN(C(=O)Nc3ccccc3)C2)CC1=O (stereo unspecified)	-7.57%
Cc1ccccc1C1(C(=O)N2CCCC(n3cncn3)C2)CC1 (stereo unspecified)	-10.8%
CC1(C)CNC(=O)c2nc(CCN3CCCCC3CO)[nH]c2C1 (stereo unspecified)	4.33%
CC(C)c1nc(C2CCCN2C(=O)c2cnns2)no1 (stereo unspecified)	-1.79%
CC(NC(=O)c1ccc(F)cc1F)c1cnn(C)c1 (stereo unspecified)	-4.48%
O=C(N1CCCCC1)N1CCN(CC(O)c2ccc(F)cc2)CC1 (stereo unspecified)	-7.9%
N#CC1COCCN1S(=O)(=O)c1ccc(F)c(Br)c1 (stereo unspecified)	-9.56%
Cc1ncoc1C(=O)N1C[C@H]2CCC[C@@]2(COCc2cccnc2)C1	3.21%
O=C(NCC(c1ccccc1)N1CCOCC1)Nc1cn[nH]c1 (stereo unspecified)	1.36%
Cc1nn(C)c(N(C)C)c1CNC1CCc2c(F)cccc21 (stereo unspecified)	7.05%
Cc1nccc(C2CCCCN2Cc2cccc(F)c2)n1 (stereo unspecified)	-12.9%
COc1cc2nc3n(c(=O)c2cc1OC)CCN(C(=O)C1CCC1)CC3	-4.59%
CC(C)c1nc(C2CCCN2CCOCC2CC2)no1 (stereo unspecified)	-15.5%

SMILES	cytotoxicity at 70.5 h
CN(CCn1cccn1)S(=O)(=O)c1cccc(Cl)c1C#N	-7.08%
c1ccc(CCNc2ncnc3c2CCN(Cc2c[nH]cn2)CC3)cc1	-0.00958%
c1ccc(C2CN(c3ncnc4[nH]cnc34)CCO2)cc1 (stereo unspecified)	-8.36%
CN(Cc1cccnc1)[C@@H]1CN(C(=O)c2ccoc2)[C@@H]2CCCO[C@H]12	-11.9%
CC(C)(C)c1coc([C@@H]2COCCN2Cc2ccccc2)n1	0.308%
CSCc1ccc(N2CCN(c3ccc(Cl)cn3)CC2)nc1	3.63%
O=C(C1CCSCC1)N1CC[C@H]2OCC[C@@]2(COCC2CC2)C1	-6.06%
c1ccc(CCCN2CC(n3cccn3)C2)cc1	-2.22%
Cc1nn(C)c(Cl)c1CNCc1ccc(OCC(N)=O)cc1	1.75%
CCS(=O)(=O)N1CCC2(CC1)CCn1c(-c3cnn(C)c3)cnc12	-13%
CCOC1CCCN(C(=O)c2cnc3c(cnn3C3CCCC3)c2)C1 (stereo unspecified)	-18%
Cc1ccc(CNC(=O)C2=NOC3(CCCNC3)C2)cc1 (stereo unspecified)	-13.2%
Cc1noc(CNc2ccccc2C(=O)N2CCCC(O)C2)n1 (stereo unspecified)	5.5%
O=C(c1cnccn1)N1C[C@@H]2CCN(c3cccnc3)C[C@@H]2C1	-9.4%
O=C(c1ccncn1)N1CCC[C@]2(C[C@@H](OCC3CC3)CO2)C1	-13.8%
COc1ccc(CN2CCOC3(CCCN(c4nnc(C)o4)C3)C2)cc1 (stereo unspecified)	-2.27%
Cc1cc(C)c2nc(C)c(C(=O)N3CCC(N4CCCC4)CC3)cc2c1	-0.523%
CCOc1ccc(C(F)(F)F)cc1NCc1nc(C)c(C)o1	-2.62%
